# Laboratory results taken from US20050089473A1, “Potassium channel mediated delivery of agents through the blood-brain barrier” (Cedars-Sinai Medical Center, priority 2003, published 2005).
# Where a name gives a salt, the structure may show the parent alone.
# Tested on: RG2 tumor capillary endothelium
# Assay: Transmission electron microscopy of vesicular transport in tumor capillary endothelium
# Format: in vivo, rat
# Settings: i.c. MS 30 μg/kg/min 15 min
# Source text: S., Rao, […]., and Black, K. L. Regulation of blood-brain tumor barrier permeability by calcium-activated potassium channels J. Pharmacol. Exp. Ther., 301:838-851, 2002). […] S., Rao, […]., and Black, K. L. Regulation of blood-brain tumor barrier permeability by calcium-activated potassium channels J. Pharmacol. Exp. Ther., 301:838-851, 2002). Briefly, micrographs were placed on a digitizing screen and structural features measued using Scan […]TM, a computer-assisted, image analysis system (Jandel Scientific, Corte Madera, Calif.). Abluminal and luminal circumferences, areas of endothelial cytoplasm excluding nuclei and vacuoles, and mean thickness of endothelial cytoplasm were measured and compared with those in the control group. The mean thickness of endothelium was calculated by subtraction of the luminal radius from the abluminal radius, which was obtained from the areas encircled by the luminal and abluminal circumferences, respectively. The proportion of total vesicular area to the cytoplasmic area was expressed as a percentage in order to derive another parameter to characterize vesicular transport.
smiles,measurement,value
"Nc1cc(N2CCCCC2)nc(N)[n+]1OS(=O)(=O)[O-] [MS, minoxidil sulfate]",Endothelial tight junction indices in tumor capillaries,did not alter the endothelial tight junction indices
same,Vesicular density in tumor capillary endothelium,significantly increased vesicular density
